Here are results for eleven compounds from article PMC7586336 (Journal of Medicinal Chemistry, 2020).

Values after ≈ are worked out from the molar mass of the structure shown.

For one series, the system named is P. aeruginosa PAO1 wt. The experiment in a line: Antibiotic susceptibility. The series is classed as cell-based, Pseudomonas aeruginosa.
Another series concerns P. aeruginosa PA14 wt. The series is described as follows: Antibiotic susceptibility. The series is classed as cell-based, Pseudomonas aeruginosa.
Another series deals with Calu-3 HTB-55. The experiment in a line: Cell permeability, Transwell system. The note with it: after 4 h, data not shown. Format: in vitro ADME, human.
The subject of the next series is P. aeruginosa PA14 ΔlecB. The experiment in a line: Antibiotic susceptibility. The series is classed as cell-based. The note with it: Pseudomonas aeruginosa.
The test system of another series is HEK293 cells. The experiment in a line: Cytotoxicity. Format: cell-based, human. The note with it: HEK 293 and A549, 100 μM, 48 h incubation.
A further series relates to P. aeruginosa PA14 ΔlecA. The series is described as follows: Antibiotic susceptibility. Format: cell-based. Conditions: Pseudomonas aeruginosa.
The nature of series [1]: Microsomal stability, human liver microsomes. The series is classed as in vitro ADME. The note with it: one experiment. In general terms: Liver microsomes are vesicles of endoplasmic reticulum, rich in cytochrome P450 enzymes.
Series [2] in a line: Microsomal stability, mouse liver microsomes. The note with it: one experiment. Format: in vitro ADME.
The subject of a further series is E. coli DSM 1116. The series is described as follows: Antibiotic susceptibility. Conditions: Escherichia coli, DSM1116. Format: cell-based.
A further series deals with E. coli K12 MG1655. The series is described as follows: Antibiotic susceptibility. Format: cell-based. The note with it: Escherichia coli.
Another series addresses E. coli gyrase (Escherichia coli, UniProt P0AES4+P0AES6). The series is classed as biochemical.
A further series deals with A549 cells. The series is described as follows: Cytotoxicity. Format: cell-based, human. Conditions: 48 h, MTT.
Setting [3] is: P. aeruginosa PAO1 wt + 1 μg/mL PMBN.
Where [4] appears, read: P. aeruginosa PA14 wt + 1 μg/mL PMBN.

E. coli gyrase, sequence (P0AES4 whole entry, one chain of several): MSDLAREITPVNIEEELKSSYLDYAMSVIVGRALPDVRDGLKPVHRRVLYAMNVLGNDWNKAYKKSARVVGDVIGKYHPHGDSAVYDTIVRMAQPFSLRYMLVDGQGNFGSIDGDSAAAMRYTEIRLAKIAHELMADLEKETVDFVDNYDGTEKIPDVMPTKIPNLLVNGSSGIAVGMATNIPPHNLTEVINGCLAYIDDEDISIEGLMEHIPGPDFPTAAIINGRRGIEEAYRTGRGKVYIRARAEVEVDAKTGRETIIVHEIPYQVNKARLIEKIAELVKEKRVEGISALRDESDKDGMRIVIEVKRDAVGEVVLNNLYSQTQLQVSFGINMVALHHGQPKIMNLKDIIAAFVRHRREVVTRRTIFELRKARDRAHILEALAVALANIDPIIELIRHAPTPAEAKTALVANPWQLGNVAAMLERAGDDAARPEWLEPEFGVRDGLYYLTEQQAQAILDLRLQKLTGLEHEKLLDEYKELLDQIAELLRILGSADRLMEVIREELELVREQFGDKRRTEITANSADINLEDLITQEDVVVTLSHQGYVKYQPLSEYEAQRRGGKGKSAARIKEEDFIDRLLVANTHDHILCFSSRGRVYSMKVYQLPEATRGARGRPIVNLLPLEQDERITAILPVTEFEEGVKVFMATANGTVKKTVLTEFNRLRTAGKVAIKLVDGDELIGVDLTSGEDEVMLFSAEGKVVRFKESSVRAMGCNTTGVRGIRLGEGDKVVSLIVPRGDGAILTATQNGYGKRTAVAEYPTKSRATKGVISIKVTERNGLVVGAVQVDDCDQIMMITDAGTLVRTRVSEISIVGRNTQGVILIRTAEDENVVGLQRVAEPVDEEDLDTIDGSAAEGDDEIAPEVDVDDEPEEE

For the compound `O=C(Cn1cc(CN2CCN(c3cc4c(cc3F)c(=O)c(C(=O)O)cn4C3CC3)CC2)nn1)Nc1ccc(S[C@@H]2O[C@H](CO)[C@H](O)[C@H](O)[C@H]2O)cc1` [compound 22], the minimal inhibitory concentration (MIC) lay in the range of 4 to 8 µg/mL in the series on P. aeruginosa PAO1 wt (setting [3]); 16 to 32 µg/mL (≈ 21.6 to 43.3 µM) against P. aeruginosa PAO1 wt (Pseudomonas aeruginosa, PAO1); 4 to 16 µg/mL in the series on P. aeruginosa PA14 wt (setting [4]); 16 to 32 µg/mL (≈ 21.6 to 43.3 µM) in the series with P. aeruginosa PA14 ΔlecB; 16 to 32 µg/mL (≈ 21.6 to 43.3 µM) against P. aeruginosa PA14 ΔlecA; 2 to 4 µg/mL (≈ 2.7 to 5.41 µM) in the series on E. coli DSM 1116. Besides, the “permeation (apical to basal) over Calu-3 HTB-55 cells” value with Calu-3 HTB-55 is on record as “No detectable permeation”. Also, the “acute cytotoxicity (in words)” value in the series with HEK293 cells is listed as “no cytotoxicity”. The “metabolic stability CLMIC HLM” value in series [1] is reported as 10 μL/min/mg protein. For the same compound, the “metabolic stability CLMIC MLM” value in [2] worked out at 10 μL/min/mg protein.
As to `O=C(CCn1cc(CCN2CCN(c3cc4c(cc3F)c(=O)c(C(=O)O)cn4C3CC3)CC2)nn1)Nc1ccc(S[C@@H]2O[C@H](CO)[C@H](O)[C@H](O)[C@H]2O)cc1` [compound 25], the MIC with P. aeruginosa PAO1 wt (setting [3]) and in the series on P. aeruginosa PA14 wt (setting [4]) was 32 to 64 µg/mL throughout.
With `O=C(CCCn1cc(CN2CCN(c3cc4c(cc3F)c(=O)c(C(=O)O)cn4C3CC3)CC2)nn1)Nc1ccc(S[C@@H]2O[C@H](CO)[C@H](O)[C@H](O)[C@H]2O)cc1` [compound 26], the MIC with P. aeruginosa PAO1 wt (setting [3]) is 4 to 8 µg/mL; in the series with P. aeruginosa PAO1 wt (Pseudomonas aeruginosa, PAO1), 16 to 32 µg/mL (≈ 20.8 to 41.7 µM); in the series on P. aeruginosa PA14 wt (Pseudomonas aeruginosa, PA14), 8 to 16 µg/mL (≈ 10.4 to 20.8 µM); against P. aeruginosa PA14 ΔlecB it was 8 to 16 µg/mL (≈ 10.4 to 20.8 µM); with P. aeruginosa PA14 ΔlecA, 8 to 16 µg/mL (≈ 10.4 to 20.8 µM); against E. coli DSM 1116, 2 to 32 µg/mL (≈ 2.6 to 41.7 µM). Further, the MIC in the series with E. coli K12 MG1655 fell in the range of 1 to 2 µg/mL (≈ 1.3 to 2.6 µM).
On to `C#CCN1CCN(c2cc3c(cc2F)c(=O)c(C(=O)O)cn3C2CC2)CC1` [compound 20, N-Propargyl-ciprofloxacin], for which the minimum inhibitory concentration (MIC) fell in the range of 1 to 2 µg/mL in the series with P. aeruginosa PAO1 wt (setting [3]); 4 to 8 µg/mL (≈ 10.8 to 21.7 µM) with P. aeruginosa PAO1 wt (Pseudomonas aeruginosa, PAO1); 0.025 to 0.5 µg/mL in the series on P. aeruginosa PA14 wt (setting [4]); 2 to 4 µg/mL (≈ 5.41 to 10.8 µM) against P. aeruginosa PA14 wt (Pseudomonas aeruginosa, PA14); 4 to 8 µg/mL (≈ 10.8 to 21.7 µM) with P. aeruginosa PA14 ΔlecA. Further, on E. coli gyrase, the “factor of decrease in gyrase inhibitory concentration compared to 3” value is recorded as 3.5.
For the compound `O=C(CCCn1cc(CCN2CCN(c3cc4c(cc3F)c(=O)c(C(=O)O)cn4C3CC3)CC2)nn1)Nc1ccc(S[C@@H]2O[C@H](CO)[C@H](O)[C@H](O)[C@H]2O)cc1` [compound 27], the minimal inhibitory concentration (MIC) with P. aeruginosa PAO1 wt (setting [3]) was in the range of 32 to 64 µg/mL; in the series on P. aeruginosa PA14 wt (setting [4]) it was 32 to 64 µg/mL; against E. coli DSM 1116, 4 to 32 µg/mL (≈ 5.12 to 40.9 µM).
`O=C(CCn1cc(CN2CCN(c3cc4c(cc3F)c(=O)c(C(=O)O)cn4C3CC3)CC2)nn1)Nc1ccc(S[C@@H]2O[C@H](CO)[C@H](O)[C@H](O)[C@H]2O)cc1` [compound 24]: the MIC in the series on P. aeruginosa PAO1 wt (setting [3]) fell in the range of 4 to 8 µg/mL; in the series on P. aeruginosa PA14 wt (setting [4]), 8 to 16 µg/mL; in the series with P. aeruginosa PA14 wt (Pseudomonas aeruginosa, PA14), 8 to 16 µg/mL (≈ 10.6 to 21.2 µM); against P. aeruginosa PA14 ΔlecB, 8 to 32 µg/mL (≈ 10.6 to 42.5 µM); in the series with P. aeruginosa PA14 ΔlecA it was 8 to 16 µg/mL (≈ 10.6 to 21.2 µM); in the series on E. coli DSM 1116, 2 to 4 µg/mL (≈ 2.65 to 5.31 µM).
Turning to `O=C(O)c1cn(C2CC2)c2cc(N3CCNCC3)c(F)cc2c1=O` [compound 3, ciprofloxacin, reference compound], the MIC lay in the range of 0.025 to 0.08 µg/mL (≈ 0.0754 to 0.241 µM) against P. aeruginosa PAO1 wt (Pseudomonas aeruginosa, PAO1); 0.05 to 0.08 µg/mL (≈ 0.151 to 0.241 µM) against P. aeruginosa PA14 ΔlecB; 0.05 to 0.08 µg/mL (≈ 0.151 to 0.241 µM) against P. aeruginosa PA14 ΔlecA.
`C[C@@H]1O[C@H](CNS(=O)(=O)c2ccc(CCn3cc(CN4CCN(c5cc6c(cc5F)c(=O)c(C(=O)O)cn6C5CC5)CC4)nn3)s2)[C@@H](O)[C@H](O)[C@@H]1O` [compound 30]: the minimal inhibitory concentration (MIC) with P. aeruginosa PAO1 wt (setting [3]) is 32 to 64 µg/mL; with E. coli DSM 1116, 16 to 32 µg/mL (≈ 21 to 42 µM); against E. coli K12 MG1655, 8 to 16 µg/mL (≈ 10.5 to 21 µM). For the same compound, in the series on Calu-3 HTB-55, the “permeation (apical to basal) over Calu-3 HTB-55 cells” value is reported as “No detectable permeation”. The “cytotoxicity @ 100 μM A549” value in the series with A549 cells is on record as “–9 ± 15 % inhibition”. Moreover, the “acute cytotoxicity (in words)” value with HEK293 cells is “no cytotoxicity”. In series [1], the “metabolic stability CLMIC HLM” value is 15 μL/min/mg protein. Also, in series [2], the “metabolic stability CLMIC MLM” value is reported as 10 μL/min/mg protein.
On to `O=C(CCCCn1cc(CN2CCN(c3cc4c(cc3F)c(=O)c(C(=O)O)cn4C3CC3)CC2)nn1)Nc1ccc(S[C@@H]2O[C@H](CO)[C@H](O)[C@H](O)[C@H]2O)cc1` [compound 28], for which the MIC in the series with P. aeruginosa PAO1 wt (setting [3]) fell in the range of 8 to 16 µg/mL; against P. aeruginosa PAO1 wt (Pseudomonas aeruginosa, PAO1) it was 32 to 64 µg/mL (≈ 40.9 to 81.9 µM); in the series on P. aeruginosa PA14 wt (setting [4]), 2 to 8 µg/mL; in the series on P. aeruginosa PA14 ΔlecB it was 32 to 64 µg/mL (≈ 40.9 to 81.9 µM); against E. coli DSM 1116, 4 to 32 µg/mL (≈ 5.12 to 40.9 µM); against E. coli K12 MG1655 it was 2 to 4 µg/mL (≈ 2.56 to 5.12 µM).
For `O=C(Cn1cc(CCN2CCN(c3cc4c(cc3F)c(=O)c(C(=O)O)cn4C3CC3)CC2)nn1)Nc1ccc(S[C@@H]2O[C@H](CO)[C@H](O)[C@H](O)[C@H]2O)cc1` [compound 23], the MIC with P. aeruginosa PAO1 wt (setting [3]) lay within 32 to 64 µg/mL; with P. aeruginosa PA14 wt (setting [4]) it was 16 to 64 µg/mL; against E. coli K12 MG1655, 8 to 16 µg/mL (≈ 10.6 to 21.2 µM).
As for `O=C(CCCCn1cc(CCN2CCN(c3cc4c(cc3F)c(=O)c(C(=O)O)cn4C3CC3)CC2)nn1)Nc1ccc(S[C@@H]2O[C@H](CO)[C@H](O)[C@H](O)[C@H]2O)cc1` [compound 29], the MIC was 32 to 64 µg/mL in the series on P. aeruginosa PAO1 wt (setting [3]), 32 to 64 µg/mL in the series on P. aeruginosa PA14 wt (setting [4]) and 4 to 32 µg/mL (≈ 5.03 to 40.2 µM) against E. coli DSM 1116.

The term MIC denotes the smallest concentration in the dilution series that meets the test's criterion for growth inhibition.
